{"source": "paper PMC3950666", "about": "“Cellular trafficking determines the exon skipping activity of Pip6a-PMO in mdx skeletal and cardiac muscle cells” (Nucleic Acids Research, 2013)", "key": {"[1]": {"conditions": "1 µM concentration; cited from earlier work", "from_the_text": "A full comparison of EC50 values is difficult since ..."}, "[2]": {"system": "dystrophin pre-mRNA exon 23 in H2k mdx myotubes", "assay": "Exon 23 skipping by nested RT-PCR in differentiated H2k mdx myotubes", "assay_type": "cell-based, mouse"}, "[3]": {"system": "dystrophin pre-mRNA exon 23 in primary mdx cardiomyocytes", "assay": "Exon 23 skipping by nested RT-PCR in primary mdx cardiomyocytes", "assay_type": "cell-based, mouse"}, "H2k mdx myotubes": {"system": "H2k mdx myotubes", "assay": "Cellular uptake by fluorescence spectroscopy in H2k mdx myotubes", "method": "After incubation with 3′-fluorescein labelled Pip6a-PMO or 3′-fluorescein-labelled PMO, cells were washed twice with PBS and lysed with 300 µl GLB buffer (Promega). In all, 100 µl of the lysate were transferred into black non-binding 96-well plates (Greiner) and fluorescence was measured on a Tecan plate reader (Ex 485 nm/Em 520 nm). Protein concentration was measured by a BCA kit (Pierce) on a Tecan plate reader (Abs 560 nm)."}, "[4]": {"system": "dystrophin pre-mRNA exon 23 in primary wild-type cardiomyocytes", "assay": "Exon 23 skipping by nested RT-PCR in primary wild-type cardiomyocytes", "assay_type": "cell-based, mouse", "conditions": "for %ES (percentage of exon skipping): 1000 nM, WT (healthy) cardiomyocytes, serum-containing medium, 24 h post-treatment, n ≥ 4"}, "[5]": {"system": "dystrophin pre-mRNA exon 23 in C2C12 myotubes", "assay": "Exon 23 skipping by nested RT-PCR in differentiated C2C12 myotubes", "assay_type": "cell-based, mouse", "conditions": "serum-containing transfection media, 24 h post-treatment", "protocol": "Figure S3. Exon skipping efficiency of Pip6a-PMO in C2C12 skeletal muscle cells. C2C12 cells were differentiated for 6 days and thereafter incubated with Pip6a-PMO under serum condition (+S). Transfections were carried out for 4 h under serum conditions and cells were incubated further with serum-containing medium for 20 h. Exon skipping efficiency was evaluated on pre-mRNA levels by nested RT-PCR. Products were separated by gel electrophoresis and exon skipping values were derived from densitometric analysis. (Percentage of exon skipping (%ES) calculated as described in Figure S1 with n≥4)."}, "[6]": {"system": "dystrophin pre-mRNA exon 23 in H2k mdx myoblasts", "assay": "Exon 23 skipping by nested RT-PCR in undifferentiated H2k mdx myoblasts", "assay_type": "cell-based, mouse"}}, "note": "pEC50: −log10 of the molar value. Read-outs that look alike come from different tables or passages of the source.", "data": [{"substance": "(RXRRBR)2 [B-PMO, PMO covalently linked to the (RXRRBR)2 B-peptide, previously described PPMO]", "values": [{"measurement": "reported exon-skipping level", "setting": "[1]", "value": "~45", "unit": "%"}]}, {"substance": "Ac-RXRRBRRXRYQFLIRXRBRXRB-OH [Pip6a-PMO, Pip6a peptide conjugated by amide linkage to the 5′-amino linker of the PMO; carries 3′-fluorescein label unless mentioned as unlabelled]", "values": [{"measurement": "exon skipping", "setting": "[2]; 1 µM, statement of the discussion", "value": "complete exon skipping"}, {"measurement": "pEC50", "setting": "[2]; 48 h post-treatment (4 h transfection, then 44 h serum-containing medium), serum condition (+S), read-out: EC50 at 48 h (exon 23 skipping)", "value": 7.70}, {"measurement": "pEC50", "setting": "[2]; serum-free medium (-S), 24 h post-treatment, Prism 5.0 after normalization of the Δ23 skipping, read-out: EC50 (concentration required to achieve 50% exon 23 skipping)", "value": 7.39}, {"measurement": "pEC50", "setting": "[2]; serum-supplemented transfection medium (+S), 24 h post-treatment, Prism 5.0 after normalization, read-out: EC50 (exon 23 skipping)", "value": 7.52}, {"measurement": "pEC50", "setting": "[3]; primary cardiomyocytes from neonatal mdx and wild-type mice, not distinguished, approximate", "value": "~6.00"}, {"measurement": "effect of EIPA on cellular delivery and exon-skipping activity", "setting": "H2k mdx myotubes; 250 nM, 4 h, EIPA 10 µM, 30 min pre-treatment, n ≥ 4", "value": "only negligible effects"}, {"measurement": "effect of CPZ on cellular delivery and exon-skipping activity", "setting": "H2k mdx myotubes; 250 nM, 4 h, chlorpromazine 30 µM, 30 min pre-treatment, n ≥ 4", "value": "only negligible effects"}, {"measurement": "effect of nystatin on uptake and exon 23-skipping efficiency", "setting": "H2k mdx myotubes; 250 nM, 4 h, nystatin 50 µM, 30 min pre-treatment, n ≥ 4", "value": "pronounced effect"}, {"measurement": "increase of uptake in myotubes versus myoblasts", "setting": "H2k mdx myotubes; H2k mdx cells, 4 h incubation, fluorescence spectroscopy", "value": 2, "unit": "fold"}, {"measurement": "%ES (percentage of exon skipping)", "setting": "[4]", "value": 44, "unit": "%"}, {"measurement": "change of exon skipping with 48 h incubation", "setting": "[4]; 48 h post-treatment compared with 24 h, primary wild type cardiomyocytes, Supplementary Figure S7", "value": "did not increase significantly"}, {"measurement": "pEC50", "setting": "[5]", "value": 6.97}, {"measurement": "EC50 in H2k mdx myoblasts relative to H2k mdx myotubes", "setting": "[6]; 183 nM in myoblasts compared with myotubes", "value": "~6", "unit": "times"}, {"measurement": "pEC50", "setting": "[6]; undifferentiated H2k mdx myoblasts, data not shown", "value": 6.74}]}, {"substance": "PMO: phosphorodiamidate morpholino oligomer 5′-GGCCAAACCTCGGCTTACCTGAAAT-3′ with 5′-amino linker and 3′-fluorescein label, Gene Tools (morpholino, 5'-amino linker, 3'-fluorescein, chemistry not fully specified) [reference compound]", "values": [{"measurement": "%ES (percentage of exon skipping)", "setting": "[3]; 1000 nM, mdx cardiomyocytes, serum-containing medium, 24 h post-treatment, n ≥ 4, listed as naked PMO", "value": "failed to induce any exon skipping"}, {"measurement": "cellular uptake (fluorescence)", "setting": "H2k mdx myotubes; 1000 nM, 4 h incubation, cell lysate fluorescence Ex 485 nm/Em 520 nm", "value": "no uptake"}, {"measurement": "%ES (percentage of exon skipping)", "setting": "[4]; listed as naked PMO", "value": "failed to induce any exon skipping"}]}]}
